Data: PubChem BioAssay (NCI)
“And” between values parts separate entries of the source, which are not always exact repeats. Identical values can stand only once.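 Five compound concentrations were applied to cells in 96-well plates for 48 hours; endpoints were derived by simple linear interpolation of the resulting dose-response curve. Here, GI50 denotes the concentration required for 50% inhibition of growth. TGI denotes the concentration required for complete inhibition of growth.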

Tested on: SK-OV-3 ovarian
Assay: NCI-60 cell line screen, 48 h

| SMILES | GI50 [µM] | TGI |
| --- | --- | --- |
| CCN(Cc1ccc(F)cc1)c1ccc(CO)c(Br)c1 | 5.18 | 21.9 µM |
| Cc1ccc2c(C3C(C#N)=C(N)Oc4cc5ccccc5cc43)cc(=O)oc2c1 (centres undefined) | 2.04 | > 100 µM |
| COC(=O)c1cc2c(s1)-c1nccc3c1c(nc1ccccc13)C2=O | > 100 | > 100 µM |
| COc1ccc(-c2cc(/C=C/C(=O)c3ccc(OC)c(OC)c3)[nH]n2)cc1 | 5.56 | 17.1 µM |
| C[Si](C)(C)/C(I)=C/CO | – | > 100 µM |
| C[N+](C)(C)CC1CCC/C1=N\OC(=O)c1ccccc1 (centres undefined) | – | > 100 µM |
| Oc1ccc(Nc2c3ccccc3nc3occ(Cl)c23)cc1 | 4.77 | > 100 µM |
| O=C(Nc1cc(C(F)(F)F)ccc1Cl)c1cccc(NC2=C(Cl)C(=O)N(Cc3ccccc3)C2=O)c1 | > 100 | > 100 µM |
| CCCCCCCN=C(N)c1ccc(N2CCN(c3ccc(C(N)=NCCCCCCC)cc3)CC2)cc1 | 0.735 | > 26.4 µM |
| Cc1ccc(S(=O)OCc2c(C)c(C)c(COS(=O)c3ccc(C)cc3)c(C)c2C)cc1 (centres undefined) | – | > 100 µM |
| COc1ccc2c(c1)c[n+](C)c1c3cc(OC)c(OC)cc3ccc21 | – | 29.4 µM |
| CN(C)C(=S)Sc1ccc([N+](=O)[O-])cc1[N+](=O)[O-] | 12 | 31.2 µM |
| C[C@H]1CN[C@@H]2[C@@H](C)[C@H]3[C@@H](C[C@H]4[C@@H]5CC[C@H]6C[C@@H](N)CC[C@]6(C)[C@H]5CC[C@]34C)O[C@@]2(O)C1 | – | 19.7 µM |
| CSc1ccccc1C#C/C=C\C#Cc1ccccc1N | 31.4 | 96.5 µM |
| COc1ccc(C(O)(CCC(C)C)C(CN2CCOCC2)c2ccc(Cl)cc2)cc1 (centres undefined) | 21.8 | 75.8 µM |
| Cn1c(=O)c(Oc2ccc(F)cc2)cc2cnc(NC3CCOCC3)nc21 | > 25 | > 25 µM |
| CC1(C)N=C(N)N=C(N)N1c1ccc(CCCCc2ccc(Cl)c(S(=O)(=O)F)c2)c(Cl)c1 | 6.79 | 22.2 µM |
| Cc1cc2cc3c(=O)[nH]c(=O)[nH]c3nc2cc1C | – | > 100 µM |
| CCc1c(Cl)c(C)cc(O)c1Cl | – | > 100 µM |
| CC(C)OC(=O)[C@H](C)NP(=O)(OC[C@H]1O[C@@H](n2ccc(=O)[nH]c2=O)[C@](C)(F)[C@@H]1O)Oc1ccccc1 (some centres undefined) | > 100 | > 100 µM |
| BrCc1cccc(C[P+](c2ccccc2)(c2ccccc2)c2ccccc2)c1 | 70.1 | > 100 µM |
| C=COC(=O)N[C@H]1CCc2cc(OC)c(OC)c(OC)c2-c2ccc(SC)c(=O)cc21 | – | 3.5 µM |
| Cc1ccc(NC(=O)CCc2nnc(N)o2)cc1 | – | > 100 µM |
| O=C(O)c1ccc(C(=O)O)c2c(C(=O)O)ccc(C(=O)O)c12 | – | > 100 µM |
| CSc1nc(NC2OC(COC(C)=O)C(OC(C)=O)C(OC(C)=O)C2OC(C)=O)c(N=CC=Nc2c(NC3OC(COC(C)=O)C(OC(C)=O)C(OC(C)=O)C3OC(C)=O)nc(SC)n(C)c2=O)c(=O)n1C (centres undefined) | > 50 | > 50 µM and 80.1 µM |
| O=S(=O)(Nc1ccc(Cl)cc1Cl)c1ccc(-c2cnc(C3CC3)o2)cc1 | 7.1 | 99.4 µM |
| CCc1ccc(/C=C/c2ccc(O)c3ncccc23)[n+](C)c1 | 26.9 | > 100 µM |
| S=c1[nH]c2c(Cl)c(Cl)c(Cl)c(Cl)c2[nH]1 | – | 55.3 µM |
| O=C(/C=C/C=C/c1ccccc1)c1ccccc1 | – | 70.4 µM |

Tested on: SK-MEL-5 melanoma
Assay: NCI-60 cell line screen, 48 h

| SMILES | GI50 | TGI |
| --- | --- | --- |
| CCN(Cc1ccc(F)cc1)c1ccc(CO)c(Br)c1 | 3.42 µM | 19.6 µM |
| Cc1ccc2c(C3C(C#N)=C(N)Oc4cc5ccccc5cc43)cc(=O)oc2c1 (centres undefined) | 0.856 µM | 19.9 µM |
| COC(=O)c1cc2c(s1)-c1nccc3c1c(nc1ccccc13)C2=O | 33.8 µM | > 100 µM |
| COc1ccc(-c2cc(/C=C/C(=O)c3ccc(OC)c(OC)c3)[nH]n2)cc1 | 1.77 µM | 3.72 µM |
| C[Si](C)(C)/C(I)=C/CO | – | 34.6 µM |
| C[N+](C)(C)CC1CCC/C1=N\OC(=O)c1ccccc1 (centres undefined) | – | > 100 µM |
| Oc1ccc(Nc2c3ccccc3nc3occ(Cl)c23)cc1 | 3.92 µM | 18.3 µM |
| O=C(Nc1cc(C(F)(F)F)ccc1Cl)c1cccc(NC2=C(Cl)C(=O)N(Cc3ccccc3)C2=O)c1 | 12.8 µM | > 100 µM |
| CCCCCCCN=C(N)c1ccc(N2CCN(c3ccc(C(N)=NCCCCCCC)cc3)CC2)cc1 | – | 0.0141 µM |
| Cc1ccc(S(=O)OCc2c(C)c(C)c(COS(=O)c3ccc(C)cc3)c(C)c2C)cc1 (centres undefined) | – | > 100 µM |
| COc1ccc2c(c1)c[n+](C)c1c3cc(OC)c(OC)cc3ccc21 | 4.08 µM and 8.31 µM | 15.1 µM and 20.2 µM |
| CN(C)C(=S)Sc1ccc([N+](=O)[O-])cc1[N+](=O)[O-] | 1.73 µM | 5.82 µM |
| C[C@H]1CN[C@@H]2[C@@H](C)[C@H]3[C@@H](C[C@H]4[C@@H]5CC[C@H]6C[C@@H](N)CC[C@]6(C)[C@H]5CC[C@]34C)O[C@@]2(O)C1 | – | 10.4 µM |
| CSc1ccccc1C#C/C=C\C#Cc1ccccc1N | 3.71 µM | 16.4 µM |
| COc1ccc(C(O)(CCC(C)C)C(CN2CCOCC2)c2ccc(Cl)cc2)cc1 (centres undefined) | 13.8 µM | 30.9 µM |
| Cn1c(=O)c(Oc2ccc(F)cc2)cc2cnc(NC3CCOCC3)nc21 | > 25 µM | > 25 µM |
| CC1(C)N=C(N)N=C(N)N1c1ccc(CCCCc2ccc(Cl)c(S(=O)(=O)F)c2)c(Cl)c1 | 0.471 µM | 11.8 µM |
| Cc1cc2cc3c(=O)[nH]c(=O)[nH]c3nc2cc1C | – | > 100 µM |
| CCc1c(Cl)c(C)cc(O)c1Cl | – | 28.6 µM |
| CC(C)OC(=O)[C@H](C)NP(=O)(OC[C@H]1O[C@@H](n2ccc(=O)[nH]c2=O)[C@](C)(F)[C@@H]1O)Oc1ccccc1 (some centres undefined) | > 100 µM | > 100 µM |
| BrCc1cccc(C[P+](c2ccccc2)(c2ccccc2)c2ccccc2)c1 | 5.14 µM | 24 µM |
| C=COC(=O)N[C@H]1CCc2cc(OC)c(OC)c(OC)c2-c2ccc(SC)c(=O)cc21 | – | 0.097 µM |
| Cc1ccc(NC(=O)CCc2nnc(N)o2)cc1 | – | > 100 µM |
| O=C(O)c1ccc(C(=O)O)c2c(C(=O)O)ccc(C(=O)O)c12 | – | > 100 µM |
| CSc1nc(NC2OC(COC(C)=O)C(OC(C)=O)C(OC(C)=O)C2OC(C)=O)c(N=CC=Nc2c(NC3OC(COC(C)=O)C(OC(C)=O)C(OC(C)=O)C3OC(C)=O)nc(SC)n(C)c2=O)c(=O)n1C (centres undefined) | > 50 µM | > 100 µM |
| O=S(=O)(Nc1ccc(Cl)cc1Cl)c1ccc(-c2cnc(C3CC3)o2)cc1 | 0.555 µM | 14.1 µM |
| CCc1ccc(/C=C/c2ccc(O)c3ncccc23)[n+](C)c1 | 3.55 µM | > 100 µM |
| S=c1[nH]c2c(Cl)c(Cl)c(Cl)c(Cl)c2[nH]1 | – | 37.2 µM |
| O=C(/C=C/C=C/c1ccccc1)c1ccccc1 | – | 30.2 µM |

Tested on: NCI-H522 lung
Assay: NCI-60 cell line screen, 48 h

| SMILES | GI50 [nM] | TGI |
| --- | --- | --- |
| CCN(Cc1ccc(F)cc1)c1ccc(CO)c(Br)c1 | 13800 | 30.2 µM |
| Cc1ccc2c(C3C(C#N)=C(N)Oc4cc5ccccc5cc43)cc(=O)oc2c1 (centres undefined) | 446 | 11.6 µM |
| COC(=O)c1cc2c(s1)-c1nccc3c1c(nc1ccccc13)C2=O | 35000 | > 100 µM |
| COc1ccc(-c2cc(/C=C/C(=O)c3ccc(OC)c(OC)c3)[nH]n2)cc1 | 410 | 1.39 µM |
| C[Si](C)(C)/C(I)=C/CO | – | 34.5 µM |
| C[N+](C)(C)CC1CCC/C1=N\OC(=O)c1ccccc1 (centres undefined) | – | > 100 µM |
| Oc1ccc(Nc2c3ccccc3nc3occ(Cl)c23)cc1 | 2370 | 8.32 µM |
| O=C(Nc1cc(C(F)(F)F)ccc1Cl)c1cccc(NC2=C(Cl)C(=O)N(Cc3ccccc3)C2=O)c1 | 6800 | 45.3 µM |
| CCCCCCCN=C(N)c1ccc(N2CCN(c3ccc(C(N)=NCCCCCCC)cc3)CC2)cc1 | – | 0.0351 µM |
| Cc1ccc(S(=O)OCc2c(C)c(C)c(COS(=O)c3ccc(C)cc3)c(C)c2C)cc1 (centres undefined) | – | > 100 µM |
| COc1ccc2c(c1)c[n+](C)c1c3cc(OC)c(OC)cc3ccc21 | – | 2.33 µM and 4.34 µM |
| CN(C)C(=S)Sc1ccc([N+](=O)[O-])cc1[N+](=O)[O-] | 482 | 1.6 µM |
| C[C@H]1CN[C@@H]2[C@@H](C)[C@H]3[C@@H](C[C@H]4[C@@H]5CC[C@H]6C[C@@H](N)CC[C@]6(C)[C@H]5CC[C@]34C)O[C@@]2(O)C1 | – | 5.91 µM |
| CSc1ccccc1C#C/C=C\C#Cc1ccccc1N | 527 | 32.4 µM |
